The target in experiment [1] is Recombinant G2019S-LRRK2 protein (Homo sapiens (Human), UniProt Q5S007, G2019S). Put plainly: LRRK2 kinase activity, LanthaScreen TR-FRET assay (G2019S). It counts as biochemical. The settings on record: LRRKtide 400 nM, 25 μM ATP, 60 min. As for the experimental part: (§1) LRRK2 kinase activity was measured using a LanthaScreen™ Kinase Activity Assay from ThermoFisher Scientific. Recombinant wild type or G2019S-LRRK2 protein (Life Technologies, PR8604B or PV4881, respectively), was incubated with a fluorescein-labeled peptide substrate called LRRKtide that is based upon ezrin/radixin/moesin (ERM) (Life Technologies, PV4901) in the presence of ATP and serially diluted compound. […] Compound-dependent inhibition of the TR-FRET signal was used to generate a concentration-response curve for IC50 determination.
(§2) After 60 min incubation at room temperature, the reaction was stopped by addition of 10 μL of 2× stop solution containing a final concentration of 2 nM anti-pERM antibody and 10 mM EDTA. […] The ratio of the 520 nm and 495 nm emission was used to analyze the data.
In general terms: TR-FRET usually uses a lanthanide donor and a delayed reading to cut background.

For experiment [2], the target named is Recombinant wild type LRRK2 protein (Homo sapiens (Human), UniProt Q5S007). Put plainly: LRRK2 kinase activity, LanthaScreen TR-FRET assay (wild type). To be noted: LRRKtide 400 nM, 25 μM ATP, 60 min; read-out: LRRK2 WT IC50. It counts as biochemical. As for the experimental part: as §1, §2

A word on the IC50: it is the point on the concentration scale where inhibition reaches its midpoint.

Recombinant wild type LRRK2 protein, sequence (Q5S007 whole entry): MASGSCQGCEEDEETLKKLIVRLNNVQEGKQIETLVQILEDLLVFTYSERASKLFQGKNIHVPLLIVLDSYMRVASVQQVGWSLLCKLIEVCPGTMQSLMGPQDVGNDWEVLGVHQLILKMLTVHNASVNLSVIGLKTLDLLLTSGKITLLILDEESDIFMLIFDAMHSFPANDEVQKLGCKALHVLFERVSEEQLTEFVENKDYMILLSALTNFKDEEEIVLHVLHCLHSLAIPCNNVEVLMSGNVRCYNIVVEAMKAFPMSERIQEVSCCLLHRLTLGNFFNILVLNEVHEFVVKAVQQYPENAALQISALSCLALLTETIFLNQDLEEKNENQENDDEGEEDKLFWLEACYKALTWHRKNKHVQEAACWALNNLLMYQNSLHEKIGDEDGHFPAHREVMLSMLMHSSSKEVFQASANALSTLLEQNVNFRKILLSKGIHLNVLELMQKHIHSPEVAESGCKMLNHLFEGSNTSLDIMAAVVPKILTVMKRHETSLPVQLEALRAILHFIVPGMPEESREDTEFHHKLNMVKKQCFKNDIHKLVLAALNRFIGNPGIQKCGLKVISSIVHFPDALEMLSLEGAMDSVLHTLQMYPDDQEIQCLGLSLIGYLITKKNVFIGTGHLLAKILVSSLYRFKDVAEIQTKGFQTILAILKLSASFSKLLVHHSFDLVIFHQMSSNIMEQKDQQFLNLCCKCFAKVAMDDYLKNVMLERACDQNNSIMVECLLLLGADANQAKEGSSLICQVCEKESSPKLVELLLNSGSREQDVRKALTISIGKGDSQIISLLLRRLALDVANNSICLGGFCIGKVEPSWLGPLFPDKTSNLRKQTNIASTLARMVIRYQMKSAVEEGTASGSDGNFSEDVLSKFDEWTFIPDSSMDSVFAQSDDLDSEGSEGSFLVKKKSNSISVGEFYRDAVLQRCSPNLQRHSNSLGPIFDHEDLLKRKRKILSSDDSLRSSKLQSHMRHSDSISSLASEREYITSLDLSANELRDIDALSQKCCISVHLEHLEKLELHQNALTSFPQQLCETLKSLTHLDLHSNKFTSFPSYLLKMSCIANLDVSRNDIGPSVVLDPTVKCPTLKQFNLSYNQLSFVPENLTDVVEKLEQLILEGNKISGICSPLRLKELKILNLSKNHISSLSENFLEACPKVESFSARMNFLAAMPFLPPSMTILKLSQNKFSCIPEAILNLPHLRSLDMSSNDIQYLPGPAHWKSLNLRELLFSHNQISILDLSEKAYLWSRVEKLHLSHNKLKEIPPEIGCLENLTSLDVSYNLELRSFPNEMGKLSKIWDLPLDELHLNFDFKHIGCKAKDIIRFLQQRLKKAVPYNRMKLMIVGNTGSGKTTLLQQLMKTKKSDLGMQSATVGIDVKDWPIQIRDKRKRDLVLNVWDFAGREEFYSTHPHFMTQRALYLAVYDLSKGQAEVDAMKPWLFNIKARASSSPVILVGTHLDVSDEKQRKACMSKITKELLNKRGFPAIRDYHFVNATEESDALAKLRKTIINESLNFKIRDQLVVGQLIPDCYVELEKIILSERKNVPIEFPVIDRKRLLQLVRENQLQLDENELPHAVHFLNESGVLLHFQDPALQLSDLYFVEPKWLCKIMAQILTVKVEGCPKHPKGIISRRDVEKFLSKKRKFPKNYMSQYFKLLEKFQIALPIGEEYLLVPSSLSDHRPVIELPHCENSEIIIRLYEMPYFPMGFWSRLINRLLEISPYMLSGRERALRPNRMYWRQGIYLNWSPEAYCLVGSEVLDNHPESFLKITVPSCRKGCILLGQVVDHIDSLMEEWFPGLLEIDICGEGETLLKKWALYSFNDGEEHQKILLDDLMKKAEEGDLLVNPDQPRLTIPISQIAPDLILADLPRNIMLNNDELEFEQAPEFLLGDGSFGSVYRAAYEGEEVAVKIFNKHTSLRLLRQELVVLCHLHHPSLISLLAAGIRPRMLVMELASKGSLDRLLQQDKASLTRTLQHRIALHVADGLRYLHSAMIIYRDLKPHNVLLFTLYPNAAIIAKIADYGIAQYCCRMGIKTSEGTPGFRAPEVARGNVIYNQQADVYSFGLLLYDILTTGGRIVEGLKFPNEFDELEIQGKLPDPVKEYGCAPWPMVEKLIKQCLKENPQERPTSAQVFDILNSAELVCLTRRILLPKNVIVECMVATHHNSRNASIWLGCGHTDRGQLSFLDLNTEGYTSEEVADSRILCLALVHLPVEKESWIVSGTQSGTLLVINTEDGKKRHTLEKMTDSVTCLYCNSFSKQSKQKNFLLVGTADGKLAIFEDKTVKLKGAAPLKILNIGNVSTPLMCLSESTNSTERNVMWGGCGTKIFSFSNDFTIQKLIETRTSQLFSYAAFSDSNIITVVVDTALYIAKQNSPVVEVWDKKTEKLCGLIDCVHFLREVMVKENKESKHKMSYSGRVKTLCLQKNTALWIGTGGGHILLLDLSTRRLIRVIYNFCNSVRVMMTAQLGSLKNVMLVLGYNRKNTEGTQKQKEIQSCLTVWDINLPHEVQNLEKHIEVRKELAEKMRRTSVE
Recombinant G2019S-LRRK2 protein, sequence (Q5S007 whole entry G2019S): as the sequence (Q5S007 whole entry) above, with G2019S counted along it

In the case of `Cc1cccc(-c2n[nH]c3ccc(NC(=O)c4ncc(C#N)cc4C)cc23)c1` [Example 58, 5-Cyano-3-methyl-N-(3-(m-tolyl)-1H-indazol-5-yl)picolinamide], the IC50 in experiment [1] is less than 100 nM; in experiment [2] it was 100 to 1000 nM.
For `Cc1c(C#N)cnc(C(=O)Nc2ccc3[nH]nc(/C=C/c4ccccc4)c3c2)c1C` [Example 244, (E)-5-Cyano-3,4-dimethyl-N-(3-styryl-1H-indazol-5-yl)picolinamide] the same measures were less than 100 nM and less than 100 nM.
As to `Cc1cc(C#N)cnc1C(=O)Nc1ccc2[nH]nc(N3CC(F)(F)C3)c2c1` [Example 254, 5-Cyano-N-(3-(3,3-difluoroazetidin-1-yl)-1H-indazol-5-yl)-3-methylpicolinamide], the IC50 in experiment [1] fell in the range of 100 to 1000 nM; in experiment [2], 1000 to 10000 nM.
For `Cc1c(C#N)cnc(C(=O)Nc2ccc3[nH]nc(Cl)c3c2)c1C` [Example 301, N-(3-Chloro-1H-indazol-5-yl)-5-cyano-3,4-dimethylpicolinamide] the same measures were less than 100 nM and 1000 to 10000 nM.
As to `N#Cc1cnc(C(=O)Nc2ccc3[nH]nc(-c4cnoc4)c3c2)c(Cl)c1` [Example 309, 3-Chloro-5-cyano-N-(3-(isoxazol-4-yl)-1H-indazol-5-yl)picolinamide], the half-inhibitory concentration (IC50) in experiment [1] and in experiment [2] was less than 100 nM throughout.
Take `Cc1cc(C#N)cnc1C(=O)Nc1ccc2[nH]nc(-c3ccc4ocnc4c3)c2c1` [Example 71, N-(3-(Benzo[d]oxazol-5-yl)-1H-indazol-5-yl)-5-cyano-3-methylpicolinamide]: the IC50 in experiment [1] was less than 100 nM; in experiment [2], 100 to 1000 nM.
As for `Cc1c(C#N)cnc(C(=O)Nc2ccc3[nH]nc(C=C4CCC4)c3c2)c1C` [Example 276, 5-Cyano-N-(3-(cyclobutylidenemethyl)-1H-indazol-5-yl)-3,4-dimethylpicolinamide], the 50% inhibitory concentration (IC50) is less than 100 nM in experiment [1] and 100 to 1000 nM in experiment [2].
For `Cc1cc(C#N)cnc1C(=O)Nc1cc2c(-c3ccoc3)n[nH]c2cn1` [Example 155] the same measures were less than 100 nM and 1000 to 10000 nM.
For `Cc1cc(C#N)cnc1C(=O)Nc1ccc2[nH]nc(-c3coc(C#N)c3)c2c1` [Example 76, 5-Cyano-N-(3-(5-cyanofuran-3-yl)-1H-indazol-5-yl)-3-methylpicolinamide], in that order: less than 100 nM and less than 100 nM.
For `Cc1c(C#N)cnc(C(=O)Nc2ccc3[nH]nc(-c4cnn(C)c4)c3c2)c1C` [Example 187, 5-Cyano-3,4-dimethyl-N-(3-(1-methyl-1H-pyrazol-4-yl)-1H-indazol-5-yl)picolinamide], in that order: less than 100 nM and less than 100 nM.
`Cc1cnc(-c2n[nH]c3ccc(NC(=O)c4ncc(C#N)c(C)c4C)cc23)o1` [Example 207, 5-Cyano-3,4-dimethyl-N-(3-(5-methyloxazol-2-yl)-1H-indazol-5-yl)picolinamide]: the IC50 in experiment [1] and in experiment [2] was less than 100 nM in each case.
With `Cc1c(C#N)cnc(C(=O)Nc2ccc3[nH]nc(C)c3c2)c1C` [Example 297, 5-Cyano-3,4-dimethyl-N-(3-methyl-1H-indazol-5-yl)picolinamide], the values for the IC50 in experiment [1] and in experiment [2] were less than 100 nM and 100 to 1000 nM, respectively.
For `Cc1c(C(=O)Nc2ccc3[nH]nc(C4CC4)c3c2)ncc(C#N)c1C(F)(F)F` [Example 286, 5-Cyano-N-(3-cyclopropyl-1H-indazol-5-yl)-3-methyl-4-(trifluoromethyl)picolinamide] the same measures were less than 100 nM and 1000 to 10000 nM.
Consider `C=C(C)c1c(C#N)cccc1C(=O)Nc1ccc2[nH]nc(-c3cnco3)c2c1` [Example 214, 3-Cyano-N-(3-(oxazol-5-yl)-1H-indazol-5-yl)-2-(prop-1-en-2-yl)benzamide], for which the half-inhibitory concentration (IC50) in experiment [1] and in experiment [2] was less than 100 nM throughout.
With `Cc1cc(C#N)cnc1C(=O)Nc1ccc2[nH]nc(-c3cccc(C(F)(F)F)c3)c2c1` [Example 59, 5-Cyano-3-methyl-N-(3-(3-(trifluoromethyl)phenyl)-1H-indazol-5-yl)picolinamide], the IC50 in experiment [1] is less than 100 nM; in experiment [2], 100 to 1000 nM.
For `COc1cc(-c2n[nH]c3ccc(NC(=O)c4ncc(C#N)c(C)c4C)cc23)ccn1` [Example 159, 5-Cyano-N-(3-(2-methoxypyridin-4-yl)-1H-indazol-5-yl)-3,4-dimethylpicolinamide] the same measures were less than 100 nM and less than 100 nM.
For `N#Cc1cnc(C(=O)Nc2ccc3[nH]nc(-c4ccoc4)c3c2)c(Br)c1` [Example 138, 3-Bromo-5-cyano-N-(3-(furan-3-yl)-1H-indazol-5-yl)picolinamide], in that order: less than 100 nM and less than 100 nM.
For `Cc1cc(C#N)cnc1C(=O)Nc1ccc2[nH]nc(-c3ccoc3)c2n1` [Example 100, 5-Cyano-N-(3-(furan-3-yl)-1H-pyrazolo[4,3-b]pyridin-5-yl)-3-methylpicolinamide] the same measures were less than 100 nM and less than 100 nM.
Regarding `COc1c(C#N)ccc(C)c1C(=O)Nc1ccc2[nH]nc(-c3cnco3)c2c1` [Example 234, 3-Cyano-2-methoxy-6-methyl-N-(3-(oxazol-5-yl)-1H-indazol-5-yl)benzamide], the IC50 in experiment [1] and in experiment [2] was less than 100 nM throughout.
For the compound `COc1nc(C(=O)Nc2ccc3[nH]nc(Cl)c3c2)c(C)c(C)c1C#N` [Example 321, N-(3-Chloro-1H-indazol-5-yl)-5-cyano-6-methoxy-3,4-dimethylpicolinamide], the half-maximal inhibitory concentration (IC50) in experiment [1] is less than 100 nM; in experiment [2] it was 100 to 1000 nM.
For `N#Cc1cnc(C(=O)Nc2ccc3[nH]nc(-c4ccoc4)c3c2)c(C(F)F)c1` [Example 64, 5-Cyano-3-(difluoromethyl)-N-(3-(furan-3-yl)-1H-indazol-5-yl)picolinamide] the same measures were less than 100 nM and 100 to 1000 nM.
For `Cc1c(C#N)cnc(C(=O)Nc2ccc3[nH]nc(-c4cnn(C(F)(F)F)c4)c3c2)c1C` [Example 169, 5-Cyano-3,4-dimethyl-N-(3-(1-(trifluoromethyl)-1H-pyrazol-4-yl)-1H-indazol-5-yl)picolinamide], in that order: less than 100 nM and less than 100 nM.
Regarding `C=C(C)c1cc(C#N)cnc1C(=O)Nc1ccc2[nH]nc(C)c2c1` [Example 313, 5-Cyano-N-(3-methyl-1H-indazol-5-yl)-3-(prop-1-en-2-yl)picolinamide], the half-inhibitory concentration (IC50) in experiment [1] lay within 100 to 1000 nM; in experiment [2], 1000 to 10000 nM.
For `N#Cc1cnc(C(=O)Nc2ccc3[nH]nc(-c4ccoc4)c3c2)c(F)c1` [Example 1, 5-Cyano-3-fluoro-N-(3-(furan-3-yl)-1H-indazol-5-yl)picolinamide], the IC50 in experiment [1] and in experiment [2] was less than 100 nM each time.
Consider `CCc1cc(-c2n[nH]c3ccc(NC(=O)c4ncc(C#N)c(C)c4C)cc23)ccn1` [Example 279, 5-Cyano-N-(3-(2-ethylpyridin-4-yl)-1H-indazol-5-yl)-3,4-dimethylpicolinamide], for which the IC50 in experiment [1] and in experiment [2] was less than 100 nM in each case.
On to `Cc1n[nH]c(C#N)c1C(=O)Nc1ccc2[nH]nc(-c3ccoc3)c2c1` [Example 137, 5-Cyano-N-(3-(furan-3-yl)-1H-indazol-5-yl)-3-methyl-1H-pyrazole-4-carboxamide], for which the IC50 in experiment [1] and in experiment [2] was less than 100 nM each time.
Consider `Cc1c(C(=O)Nc2ccc3[nH]nc(-c4ccccc4)c3c2)cc(C#N)n1C` [Example 26, 5-Cyano-1,2-dimethyl-N-(3-phenyl-1H-indazol-5-yl)-1H-pyrrole-3-carboxamide], for which the IC50 was less than 100 nM in experiment [1] and 100 to 1000 nM in experiment [2].
On to `COc1n[nH]c2ccc(NC(=O)c3nc(C)c(C#N)c(C)c3C)cc12` [Example 287, 5-Cyano-N-(3-methoxy-1H-indazol-5-yl)-3,4,6-trimethylpicolinamide], for which the IC50 in experiment [1] was less than 100 nM; in experiment [2], 100 to 1000 nM.
With `COc1cc(-c2n[nH]c3ccc(NC(=O)c4ncc(C#N)cc4C(F)(F)F)cc23)ccn1` [Example 178, 5-Cyano-N-(3-(2-methoxypyridin-4-yl)-1H-indazol-5-yl)-3-(trifluoromethyl)picolinamide], the concentration for half-maximal inhibition (IC50) in experiment [1] and in experiment [2] was less than 100 nM in each case.
In the case of `Cc1cc(C#N)cnc1C(=O)Nc1ccc2[nH]nc(-c3ccnc(C#N)c3)c2c1` [Example 113, 5-Cyano-N-(3-(2-cyanopyridin-4-yl)-1H-indazol-5-yl)-3-methylpicolinamide], the results for the IC50 in experiment [1] and in experiment [2] were less than 100 nM and 100 to 1000 nM, respectively.
In the case of `N#Cc1cccc(C(=O)Nc2ccc3[nH]nc(-c4ccncc4)c3c2)c1` [Example 21, 3-Cyano-N-(3-(pyridin-4-yl)-1H-indazol-5-yl)benzamide], the IC50 in experiment [1] and in experiment [2] was less than 100 nM each time.
Consider `COc1nc(C(=O)Nc2ccc3[nH]nc(C)c3c2)c(C)c(C)c1C#N` [Example 322, 5-Cyano-6-methoxy-3,4-dimethyl-N-(3-methyl-1H-indazol-5-yl)picolinamide], for which the 50% inhibitory concentration (IC50) in experiment [1] and in experiment [2] was less than 100 nM each time.
As for `COc1c(C#N)ccnc1C(=O)Nc1ccc2[nH]nc(-c3cnoc3)c2c1` [Example 228, 4-Cyano-N-(3-(isoxazol-4-yl)-1H-indazol-5-yl)-3-methoxypicolinamide], the IC50 was less than 100 nM in experiment [1] and 100 to 1000 nM in experiment [2].
For `Cc1c(C#N)cnc(C(=O)Nc2ccc3[nH]nc(Br)c3c2)c1C` [Example 300, N-(3-Bromo-1H-indazol-5-yl)-5-cyano-3,4-dimethylpicolinamide] the same measures were less than 100 nM and 100 to 1000 nM.
